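Interpolation was linear, between the two tested concentrations surrounding the appropriate level; five concentrations were tested over 48 hours in 96-well plates. TGI: concentration producing complete growth inhibition.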
Legend:
Test in all cases: NCI tumour cell line growth inhibition, 48 h
U251 CNS = tested on: U251 CNS
SK-MEL-5 melanoma = tested on: SK-MEL-5 melanoma
HCT-15 colon = tested on: HCT-15 colon
UACC-62 melanoma = tested on: UACC-62 melanoma
A498 renal = tested on: A498 renal
NCI/ADR-RES ovarian = tested on: NCI/ADR-RES ovarian
NCI-H23 lung = tested on: NCI-H23 lung
HCC-2998 colon = tested on: HCC-2998 colon
SK-OV-3 ovarian = tested on: SK-OV-3 ovarian
HL-60(TB) leukemia = tested on: HL-60(TB) leukemia
SR leukemia = tested on: SR leukemia
BT-549 breast = tested on: BT-549 breast
OVCAR-3 ovarian = tested on: OVCAR-3 ovarian
OVCAR-4 ovarian = tested on: OVCAR-4 ovarian
ACHN renal = tested on: ACHN renal
KM12 colon = tested on: KM12 colon
COLO 205 colon = tested on: COLO 205 colon
SK-MEL-2 melanoma = tested on: SK-MEL-2 melanoma
RPMI-8226 leukemia = tested on: RPMI-8226 leukemia

| Compound | TGI (U251 CNS) [µM] | TGI (SK-MEL-5 melanoma) [µM] | TGI (HCT-15 colon) [µM] | TGI (UACC-62 melanoma) [µM] | TGI (A498 renal) [µM] | TGI (NCI/ADR-RES ovarian) [µM] | TGI (NCI-H23 lung) [µM] | TGI (HCC-2998 colon) [µM] | TGI (SK-OV-3 ovarian) [µM] | TGI (HL-60(TB) leukemia) [µM] | TGI (SR leukemia) [µM] | TGI (BT-549 breast) [µM] | TGI (OVCAR-3 ovarian) [µM] | TGI (OVCAR-4 ovarian) [µM] | TGI (ACHN renal) [µM] | TGI (KM12 colon) [µM] | TGI (COLO 205 colon) [µM] | TGI (SK-MEL-2 melanoma) [µM] | TGI (RPMI-8226 leukemia) [µM] |
| --- | --- | --- | --- | --- | --- | --- | --- | --- | --- | --- | --- | --- | --- | --- | --- | --- | --- | --- | --- |
| OCC(CN1CCCCC1)(CN1CCCCC1)CN1CCCCC1 | > 100 | > 100 | > 100 | > 100 | > 100 | > 100 | > 100 | > 100 | > 100 | > 100 | > 100 | > 100 | > 100 | > 100 | > 100 | > 100 | > 100 |  |  |
| CSC1=C(C(=O)Nc2ccc(Cl)cc2)C(N)=NC1=O | > 100 | > 100 | > 100 | > 100 | > 100 | > 100 | > 100 | > 100 | > 100 | > 100 | > 100 | > 100 | > 100 | > 100 |  | > 100 | > 100 | > 100 | > 100 |
| COc1cc(N(CCC#N)CCC#N)ccc1/C=C1\SC(=S)NC1=O | > 100 | > 100 | > 100 | > 100 | > 100 | > 100 | > 100 | > 100 | > 100 | > 100 | > 100 | > 100 | > 100 | > 100 | > 100 | > 100 | > 100 | > 100 | > 100 |
| CN(NC(=O)c1ccco1)C1=NCCN1 | > 100 | > 100 | > 100 | > 100 | > 100 | > 100 | > 100 | > 100 | > 100 | > 100 | > 100 | > 100 | > 100 | > 100 | > 100 | > 100 | > 100 | > 100 | > 100 |
| CCN(CC)CC(=O)Nc1c(C(N)=O)nnn1Cc1cc(Cl)c(C(=O)c2ccc(Cl)cc2)c(Cl)c1 | 41.1 | 30.4 | 34.4 | 35.4 | > 100 | 34.7 | 37.4 | 32.1 | 51.5 | 39.5 | 68.9 | 34.6 | 31.7 | > 100 | > 100 | 35.8 | 33.2 | 28.4 | 77.7 |
| Cc1ccccc1C1CC(=O)CC(c2ccccc2C)C12C(=O)NC(=O)NC2=O (stereo not drawn) | > 100 | > 100 | > 100 | > 100 | > 100 | > 100 | > 100 | > 100 | > 100 | > 100 | > 100 | > 100 | > 100 | > 100 | > 100 | > 100 | > 100 | > 100 | 97.4 |
| CCCCON1C[C@@H](O)C(O)[C@@H](O)C1 (stereo partly drawn) | > 100 | > 100 | > 100 | > 100 | > 100 | > 100 | > 100 | > 100 |  | > 100 | > 100 | > 100 | > 100 | > 100 | > 100 | > 100 | > 100 | > 100 | > 100 |
| CC1(c2ccc(F)cc2)CC(c2ccc(F)cc2)=C(C#N)C(=C(C#N)C#N)N1 (stereo not drawn) | 31.5 | 28.5 | 31.7 | 28.1 | 35.8 | 48.4 | 36.5 | 28.2 | 37.3 | 30.7 | 42.2 | 53 | 19.4 | 31.3 | 30.2 | 30.1 | 27.9 | 34.4 | > 100 |
| CC(C)=CCC[C@@H](C)C1=C(O)C(Nc2ccccc2Br)=C(C)C(=O)C1=O | 99.5 | 16.1 | 22.9 | 38.5 | 45.2 | 28.8 | 31.2 | > 69.9 | 68 | 5.52 | 45 | 50.1 | 35.6 | > 100 | > 60.2 | 32.1 | 32.3 | 41.9 | > 58.6 |
| CC(C)/C(Cl)=N\OC(=O)Nc1cccc(F)c1 | 33.4 | 28.4 | 30.6 | 45.3 | 17.9 | 37 | 34.2 | 36.9 | 35.2 | 4.05 | 6.6 | 19.5 | 32.4 | 25.4 | 27.8 | 16.7 | 5.87 | 18.9 | 15.3 |
| N#Cc1c(-c2ccc(Cl)cc2)cc(-c2ccc(Nc3ccnc4cc(C(F)(F)F)ccc34)cc2)[nH]c1=O | > 100 | > 53.4 | > 100 | 39.6 | > 89.6 | > 100 | > 100 | > 100 | 73.1 | 35 | 8.93 | 35.5 | 20.6 | 24.2 | > 100 | > 100 | 59.4 | > 100 | > 73.7 |
| O=C1/C(=C/c2cccnc2)C(n2cccc2)c2c(Br)sc(Br)c21 (stereo not drawn) | 3.08 | 21.5 | 4.96 | 4.49 | 30.4 | > 52 | 9.18 | 2.41 | 29.3 | 5.57 | 6.37 | 37.6 | 3.31 | 3.83 | 7.69 | 8.45 | 21.6 | 4.63 | 4.94 |
| CCOC(=O)c1ccc(Nc2nc3cc(C(F)(F)F)ccc3nc2-c2ccccc2)cc1 | 49.5 | > 100 | > 100 | 29.4 |  | > 100 | > 100 | 89.5 |  | > 100 | > 100 | > 100 | > 100 |  | 47.5 | > 100 | > 100 |  | > 100 |
| COc1cc(N=CN(C)C)c2ncccc2c1 | > 100 | > 100 | > 100 | > 100 | > 100 | > 100 | > 100 |  | > 100 | > 100 | 19.3 | > 100 | > 100 | > 100 | > 100 |  | > 100 | > 100 | > 100 |
| CCc1n[nH]c(=S)n1/N=C\c1ccc(-c2ccccc2Cl)o1 | 97.4 | 31.2 | 83.3 | > 100 | > 100 | 53.7 | 82 | 83.3 | > 100 | 68 | 53.5 | 66.6 | > 100 | > 100 | > 100 | > 100 | > 100 | 98 | 51.3 |
| C/C=C(C)/C=C/CC(C)CCC=C(C)C (stereo not drawn) | > 100 | > 100 | > 100 | > 100 | > 100 | > 100 |  |  | > 100 | > 100 | > 100 | > 100 | > 100 | > 100 | > 100 | > 100 | > 100 | > 100 |  |
| Cc1ccc(S(=O)(=O)N2CCN(S(=O)(=O)c3ccc(C)cc3)Cc3ccccc3C2)cc1 |  | > 100 | > 100 | 36.7 |  | > 100 | > 100 | > 100 |  | > 100 | > 100 | > 100 | > 100 | 90.8 | > 100 | > 100 | > 100 | > 100 | > 100 |
| Cc1cc(C)nc(NS(=O)(=O)c2ccc(Nc3nncc(=O)n3N)cc2)n1 | 31.5 | 33.1 | 28.8 | 51.2 | > 100 | 55.9 | 28.6 | 80.7 | > 100 | 40.2 | 42.4 | 32.6 | 29.8 | 32.9 | > 100 | > 100 | > 100 | > 100 | 49.8 |
| COc1cc2cc(C(=O)N3CC(CCl)c4c3cc([N+](=O)[O-])c3ccccc43)[nH]c2c(OC)c1OC (stereo not drawn) | > 100 | > 100 | > 100 | > 100 | 97.6 | > 78.3 | > 100 | > 100 | > 100 |  | 19.1 | > 100 | > 100 | > 100 | > 100 | > 100 | > 100 | > 100 | > 100 |
| COc1ccc(N(C)S(=O)(=O)c2ccccc2)cc1 | > 100 | > 100 | > 100 | > 100 |  | > 100 | > 100 | > 100 | > 100 | > 100 | > 100 | > 100 | > 100 | > 100 | > 100 | > 100 | > 100 | > 100 | > 100 |
| COc1ccc(NC(=O)CC(=O)N2N=C(N3CCCCC3)CC2c2ccccc2)cc1 (stereo not drawn) | > 100 | > 100 | > 100 | > 100 | > 100 | > 100 | > 100 | > 100 |  | > 100 | > 100 | > 100 | > 100 | > 100 | > 100 | > 100 | > 100 | > 100 |  |
| C#CCOC(=O)c1ccccc1O | > 100 | > 100 | > 100 | > 100 | > 100 | > 100 | > 100 |  | > 100 | > 100 | > 100 | > 100 |  | > 100 | > 100 | > 100 | > 100 | > 100 | > 100 |
| CCOC(=O)Cc1nnc2c(-c3ccccc3)nc3ccccc3n12 | 48.4 | > 100 | > 100 | > 100 | > 100 | > 100 | > 100 | 64.8 | 67.6 | > 100 | > 100 | > 100 | 51.9 | > 100 | 48.3 | > 100 | > 100 | 95.2 | > 100 |
| CCCCCCCC1(N=[N+]=[N-])C(=O)c2ccccc2N(C)C1=O (stereo not drawn) | > 100 | > 100 | > 100 | > 100 | > 100 | > 100 | > 100 | > 100 | > 100 | 99.1 | > 100 | > 100 | > 100 | > 100 | > 100 | > 100 | > 100 |  | > 100 |
